Test results as given in patent publication US12384767B2, “Probe for detection of cathepsin activity” (University of Florida Research Foundation, Incorporated, priority 2020, dated 2025).
Like-named read-outs stand apart in the source and are kept apart here. Residues, ends and D or L forms follow the SMILES beside them. *: point of attachment. AMC = Cc1cc(=O)oc2cc(N*)ccc12; Cbz = O=C(OCc1ccccc1)*

How the values were obtained:
[1] = target: CTB (Human Cathepsin B/CTSB Protein) (Homo sapiens, UniProt P07858); assay: Time-course cathepsin assay, CTB signal normalized to CTL; format: biochemical; conditions: 5 uM probe, 5 nM enzyme, lowest competing signal over time course
Excerpt: (§1) CTV and CTB appear to remain within the initial velocity region of the curves during this time, with a markedly lower slope than that observed for CTL initially.
(§2) The kinetic assays were repeated at pH 5.0 (FIG. 3C, D), and overall the same trends were observed as at pH 6.5. One notable difference is the altered reaction slope of CTL at this pH, which appears to have less of a plateau and instead seems to shift to a second phase of constant, yet slower, velocity. […] This improved activity of CTB at low pH is consistent with previous observations that CTB's unique carboxypeptidase activity is dependent on an acidic environment, and that this activity is disengaged at neutral pH^13.
(§3) To estimate relative selectivity of the compounds for CTL over the other enzymes, the intensity at each time point for CTB, CTV, or CTS, was divided by the intensity of CTL at the same time point; this normalizes CTL-generated signal intensity to 1.0, and expresses the relative signal generated by the other enzymes (FIG. 5). These graphs indicate that off-target signal is least prominent within the first 10 min of incubation, as the faster kinetics of the probes to CTL generate more contrast at these earlier time points. To quantify the selectivity of CTLAP and sc-3136, the lowest interfering signal from each enzyme was identified and tabulated in Table 1. Also identified was the assay time at which the total competing signal (sum of CTB, CTV, and CTS) was lowest, and the relative intensity of all competing enzymes at that time point. […] The optimum results are achieved within 10 min incubation time, lending strength to the application of CTLAP for rapid detection of CTL, even in the presence of competing enzymes.
(§4) • 1. Recombinant human Cathepsin L/MEP protein (Active) • a. Product ab174030; Lot No. (Conc.) GR3210572-1 (N/A) Sino Biological • 1. Human Cathepsin B/CTSB Protein (His Tag) • a. Cat. No. 10483-H08H • 2. Human Cathepsin V/Cathepsin L2/Preproprotein Protein (His Tag) • a. Cat. No. 10093-H08H • 3. Human Cathepsin S/CTSS Protein (His Tag) • a. Cat. No. 10487-H08H Santa Cruz Biotechnology, Inc. • 1. […] Enzyme storage and preparation:
(§5) Cathepsins reconstituted as usual and diluted into cathepsin reaction buffers (pH 5.0 or 6.5) in an opaque-bottom 96-well plate. Probes added quickly to each active well, then emission measured immediately on BioTek Synergy H1 plate reader, collecting consecutive 36 sec runs over the first 15 min of reaction time. Final probe concentration was 5 uM and final enzyme concentration was 5 nM.

[2] = target: T1, CTV (Human Cathepsin V/Cathepsin L2) (Homo sapiens, UniProt O60911); assay: Time-course cathepsin assay, CTV signal normalized to CTL; format: biochemical; conditions: 5 uM probe, 5 nM enzyme, lowest competing signal over time course
T1 construct: His; purchased Sino Biological 10093-H08H
T1 sequence (O60911 114-334): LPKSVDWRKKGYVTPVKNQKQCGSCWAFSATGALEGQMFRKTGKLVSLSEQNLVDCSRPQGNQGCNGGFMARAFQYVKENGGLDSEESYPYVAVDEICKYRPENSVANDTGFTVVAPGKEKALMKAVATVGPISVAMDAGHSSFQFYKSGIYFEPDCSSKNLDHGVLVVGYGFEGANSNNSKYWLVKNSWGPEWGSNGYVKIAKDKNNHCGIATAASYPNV
Excerpt: as §1, §2, §3, §4, §5

[3] = target: T2, CTS (Human Cathepsin S/CTSS Protein) (Homo sapiens, UniProt P25774); assay: Time-course cathepsin assay, CTS signal normalized to CTL; format: biochemical; conditions: 5 uM probe, 5 nM enzyme, lowest competing signal over time course
T2 construct: His; purchased Sino Biological 10487-H08H
T2 sequence (P25774 115-331): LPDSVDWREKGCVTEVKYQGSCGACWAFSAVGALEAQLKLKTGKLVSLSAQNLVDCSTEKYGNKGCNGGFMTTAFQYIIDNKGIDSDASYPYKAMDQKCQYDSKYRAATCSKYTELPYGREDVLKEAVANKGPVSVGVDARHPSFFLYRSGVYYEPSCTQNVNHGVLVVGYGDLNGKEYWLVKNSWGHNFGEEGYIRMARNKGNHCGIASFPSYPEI
Excerpt: as §1, §2, §3, §4, §5

CTB, CTV, and CTS = assay: Time-course cathepsin assay, total competing signal (sum of CTB, CTV, and CTS) normalized to CTL; format: biochemical, human; conditions: 5 uM probe, 5 nM enzyme
Excerpt: as §1, §2, §3
Table 1. Signal generated by CTB, CTV, and CTS, or all three enzymes together, relative to CTL signal at that time point. The lowest competing signal over the time course in FIG. 5 was selected for each individual enzyme, as well as for the sum of signals from all three enzymes. The time point at which the sum of all competing signals is lowest is also listed.
• 1. Recombinant human Cathepsin L/MEP protein (Active) • a. Product ab174030; Lot No. (Conc.) GR3210572-1 (N/A) Sino Biological • 1. Human Cathepsin B/CTSB Protein (His Tag) • a. Cat. No. 10483-H08H • 2. Human Cathepsin V/Cathepsin L2/Preproprotein Protein (His Tag) • a. Cat. No. 10093-H08H • 3. Human Cathepsin S/CTSS Protein (His Tag) • a. Cat. No. 10487-H08H Santa Cruz Biotechnology, Inc. • 1. […]
as §5, with “Final probe concentration was 5 uM and final enzyme concentration was 5 nM.” left out

[4] = target: T3, CTL (Recombinant human Cathepsin L) (Homo sapiens, UniProt P07711); assay: Probe activation by CTL, turn-on ratio and selectivity; format: biochemical
T3 construct: purchased Abcam ab174030
T3 sequence (P07711 114-333): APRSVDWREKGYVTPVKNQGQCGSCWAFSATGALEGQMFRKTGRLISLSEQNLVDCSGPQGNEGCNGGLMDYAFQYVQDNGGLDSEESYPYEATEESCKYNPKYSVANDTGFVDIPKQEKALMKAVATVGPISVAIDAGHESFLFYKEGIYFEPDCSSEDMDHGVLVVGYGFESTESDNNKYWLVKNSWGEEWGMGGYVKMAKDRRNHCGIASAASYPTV
Experimental: as §1
To determine the relative selectivity of either probe for CTL, we examined the turn-on ratio (TOR) of the probes in response to each enzyme over the first hour of incubation by dividing the emission intensity at each time point by the average intensity of the probe in buffer without enzyme (FIG. 4).
as §4
Enzyme stocks (2.5 uM) were thawed and diluted to 100 nM with cathepsin storage buffer (pH 5.5). From calibrated probe stocks were created 50 uM working stocks in DMSO (3-157 accidentally prepared to 62.5 uM instead). In a 96-well plate, solutions of cathepsin reaction buffer (either pH 5.0 or 6.5), enzyme (5 nM), and probe (5 uM) were prepared. Probe added last to the reaction wells, then read in Synergy H1 plate reader immediately (˜5 min) for emission intensity at 350-445 nm. The plate was read at various time points, then stored in fridge overnight but not quenched. The pH 5.0 plate was read again after 48 h to capture completed reaction stage, and to collect emission spectra at 350 nm excitation for both caged and activated compound wells. […]
as §5, with “Final probe concentration was 5 uM and final enzyme concentration was 5 nM.” left out

[5] = target: T3, CTL (Recombinant human Cathepsin L); assay: HPLC analysis of probe processing by CTL; format: biochemical; conditions: incubated with CTL in buffer at pH 5.0
Experimental: To confirm recognition of CTLAP by CTL, the probe was incubated with CTL in buffer at pH 5.0, and the probe was examined by HPLC analysis (FIG. 2). The compound alone in buffer retained maximum absorption at 330 nm.
[4-105] Cathepsin L reconstituted as per manufacturer's instructions, then diluted in a preliminary cathepsin storage buffer, in line with a literature procedure^16 (100 mM NaOAc/MaOH, 100 mM NaCl, 10 mM DTT, 1 mM EDTA, pH 5.5). Frozen in −80° C. freezer, and a portion removed and diluted in more cathepsin storage buffer to create 100 nM stock.
In opaque-bottom […], buffer (unfiltered) plated, then probes added, then enzyme added. Final solution in each well was 5 uM probe, 5 nM CTL, 10% DMSO/NaOAc buffer. Incubated at 37° C., removed at 10 min, 30 min, 1 h, and 4 h for measurement on plate reader (Synergy H1). […] Stored in tin foil at rt for 2 days, then stored in fridge.
To observe probe conversion, a well was diluted with DI water and injected into HPLC. […] The UV absorption traces of the new product(s) matched that of AMC.

[6] = Background emission intensity of probes in buffer without enzyme; format: physicochemical; conditions: for emission intensity (background): stocks of equal absorbance at 330 nm, quadruplicate
Experimental: This is attributed to the lower emission intensity observed in CTLAP in buffer without enzyme; the measured emission intensity of the compound at 5 μM is consistently 6- to 8-fold lower than that of sc-3136 (FIG. 6). As low background signal can improve the sensitivity and detection limit of fluorogenic assays, we sought to identify the cause of the low background intensity of CTLAP. We first examined the spectral and photophysical properties of the compound to confirm that this low background intensity was not an artifact of experimental methods.
We next tested hypothesis (2), that the emission intensity measured for CTLAP or sc-3136 was somehow compromised by the experimental conditions or by the structural differences of the compounds.
To duplicate unexpected absorbances from 4-131, stocks of probes from 4-128 used to create true 50 uM stocks. UV absorbance at 330 nm measured in a 96-well plate, then 150 uL transferred to an opaque-bottom plate and emission intensity (350/445 nm) was measured. Experiments run in quadruplicate, with a buffer blank. Measured on a BioTek Synergy H1.
50 uL of these solutions were diluted with 150 uL cathepsin L reaction buffer (pH 5.0) to give solutions of 5 uM compound in 25% DMSO/buffer. These samples were used to measure UV-Vis spectra (250-400 nm) on a Shimadzu UV-2700. A blank solution of 25% DMSO/buffer was used to baseline the instrument. Between samples, the cuvette was flushed with 200 uL DMSO, drained, and the next sample was added.
The remaining 150 uL of solution was diluted with 450 uL buffer to give 600 uL of 5 uM compound in 25% DMSO/buffer. The solution was transferred to an opaque-bottom 96-well plate, in three aliquots of 200 uL. The plate was used to measure emission and excitation spectra, and quantitative endpoint emission intensities. All spectral scans were collected at 50 Gain, in 5 nm steps.

[7] = Molar attenuation coefficient and quantum yield; format: physicochemical; conditions: for ε × 10^−3 (molar attenuation coefficient): absorption at 350 nm, standardized against 4-methylumbelliferone (MU); for ϕF (quantum yield): excitation 350 nm, emission 380-600 nm, standardized against MU
Experimental: To determine quantum yields, standard curves of CTLAP and sc-3136 were constructed between 0-10 μM in buffer, and the absorbance and total emission was measured. Values for the molar attenuation coefficient and quantum yield were standardized using measured absorption and emission intensity of 4-methylumbelliferone (MU) and its literature quantum yield and molar attenuation coefficient^14. Absorption of the solutions at 350 nm was measured, and all three compounds reported good (R^2>0.96) linear fit with increasing concentration (FIG. 10A). To measure total emission intensity, the emission spectrum of each compound was collected between 380-600 nm at an excitation wavelength of 350 nm; the area under the emission curve was calculated and graphed as a function of absorption value at 350 nm for each sample (FIG. 10B).
Compounds were compared to 4-methylumbelliferone (4-MU) and 2,4-difluoro-4-methylumbelliferone (DiFMU).
To construct calibration curves, stock solutions of 4-MU and DiFMU were prepared at ˜1 mM, then diluted with buffer (carbonate buffer, pH 10) to 50 uM. From these solutions, standard curves were constructed at 50, 25, 10, 5, and 1 uM by dilution with carbonate buffer, pH 10.1. Solutions were plated in 96-well plates. Absorbance at 350 nm was measured, and the fluorescence curve at 350 nm excitation and 380-600 nm was measured. The absorbance at 350 nm was graphed against the area under the curve (AUC) of the fluorescence spectrum from 380-600 nm, and the slope of each line was used to calculate the quantum yield according to the equation: […]

[8] = standard, literature value; cited from earlier work

Structure (SMILES) | Optimal (lowest) CTB signal normalized to CTL ([1]; pH 5.0) [%] | Optimal (lowest) CTB signal normalized to CTL ([1]; pH 6.5) [%] | Optimal (lowest) CTV signal normalized to CTL ([2]; pH 5.0) [%] | Optimal (lowest) CTV signal normalized to CTL ([2]; pH 6.5) [%] | Optimal (lowest) CTS signal normalized to CTL ([3]; pH 5.0) [%] | Optimal (lowest) CTS signal normalized to CTL ([3]; pH 6.5) [%] | Lowest sum of signals from all three enzymes (B + V + S) normalized to CTL (CTB, CTV, and CTS; pH 5.0) [%] | Lowest sum of signals from all three enzymes (B + V + S) normalized to CTL (CTB, CTV, and CTS; pH 6.5) [%] | emission intensity (background) ([6]; 350/445 nm) [rfu] | ε × 10^−3 (molar attenuation coefficient) [7] | ϕF (quantum yield) [7] | other results
Cc1cc(=O)oc2cc(NC(=O)C(CCCCN)NC(=O)C(Cc3ccc(-c4cccs4)cc3)NC(=O)OCc3ccccc3)ccc12 (centres unmarked) [CTLAP] | 15 | 6 | 10 | 15 | 1 | 1 | 31 | 25 | 6.1e3 | 11.0 | 0.02 | selectivity for CTL over other cathepsins [4]: 6- to 10 fold; turn-on ratio (TOR) relative to that of sc-3136 ([4]; after 1 h incubation): approximately 4 fold; increase in emission intensity ([4]; within 10 min of incubation with CTL): 24 fold; conversion of probe to free AMC peak (HPLC) [5]: full conversion; emission intensity in buffer without enzyme, fold lower than sc-3136 ([6]; compound at 5 μM, 350 nm excitation, 445 nm emission): 6- to 8 fold
Cc1cc(=O)oc2cc(O)ccc12 [MU, 4-methylumbelliferone] |  |  |  |  |  |  |  |  |  |  |  | ε × 10^−3 (molar attenuation coefficient) [8]: 19.3; ϕF (quantum yield) [8]: 0.63
Cc1cc(=O)oc2cc(NC(=O)C(CCCN=C(N)N)NC(=O)C(Cc3ccccc3)NC(=O)OCc3ccccc3)ccc12 (stereo not drawn) [sc-3136, Z-FR-AMC] (Cbz-Phe-Arg-{AMC}; configuration not given here) | 16 | 21 | 14 | 16 | 7 | 7 | 39 | 46 | 4.8e4 | 7.5 | 0.32 | ratio of background intensity for sc-3136 over 3-157 ([6]; 350/445 nm): 7.8 ×; emission intensity ratio between sc-3136 and CTLAP ([6]; excitation at 330 nm): 6.9 fold; emission intensity ratio between sc-3136 and CTLAP ([6]; excitation at 350 nm): 6.3 fold
